According to publication PMC9826432 (Environmental Toxicology and Chemistry, 2022):

Assays:
[1] = molecular target: T1, human estrogen receptor α (ERα) (Homo sapiens, UniProt P03372); assay: ERα‐CALUX human cell-based reporter gene assay; conditions: based on PC10 values, 3 replicates, considering molecular weights
T1 sequence (P03372 1-595): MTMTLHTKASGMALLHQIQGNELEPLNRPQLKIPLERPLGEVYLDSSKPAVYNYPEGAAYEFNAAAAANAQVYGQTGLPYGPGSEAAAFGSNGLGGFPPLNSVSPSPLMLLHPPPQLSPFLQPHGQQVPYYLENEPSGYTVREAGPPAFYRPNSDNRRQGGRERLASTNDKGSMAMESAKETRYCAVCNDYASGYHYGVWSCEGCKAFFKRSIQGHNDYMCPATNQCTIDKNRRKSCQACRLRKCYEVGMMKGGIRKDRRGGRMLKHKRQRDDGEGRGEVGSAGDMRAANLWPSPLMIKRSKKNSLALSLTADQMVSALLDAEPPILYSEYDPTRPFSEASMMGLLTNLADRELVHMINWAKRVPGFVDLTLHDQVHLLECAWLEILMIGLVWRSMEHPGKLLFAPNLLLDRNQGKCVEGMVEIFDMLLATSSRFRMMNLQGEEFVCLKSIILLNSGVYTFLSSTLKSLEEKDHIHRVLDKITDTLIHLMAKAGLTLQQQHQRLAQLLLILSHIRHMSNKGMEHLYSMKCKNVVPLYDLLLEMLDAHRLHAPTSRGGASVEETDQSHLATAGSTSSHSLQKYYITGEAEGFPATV

[2] = molecular target: T1, human estrogen receptor α (ERα); assay: lyticase Yeast Estrogen Screen; type: cell-based; conditions: L‐YES; based on PC10 values, 3 replicates, considering molecular weights
aquatic organisms = conditions: threshold for effluents, tenfold dilution assumed; ref Loos et al., 2018; cited from earlier work

For `CC(C)(c1ccc(O)cc1)c1ccc(O)cc1` [BPA, bisphenol A], the “REP (relative estrogenic potency in comparison to 17β‐estradiol)” value [1] was 4.2E−05 and the “REP (relative estrogenic potency in comparison to 17β‐estradiol)” value [2] was 4.5E−05.
In the case of `C#C[C@]1(O)CC[C@H]2[C@@H]3CCc4cc(O)ccc4[C@H]3CC[C@@]21C` [EE2, 17α‐ethinylestradiol], the “10× diluted PNEC” value (aquatic organisms) is listed as 0.35 ng/L.
